From US12122776B2, “Tetracyclic compounds and uses thereof” (Gilead Sciences, Inc., priority 2020, dated 2024)
Where two headings read alike, the source gives them in different places.

Legend:
Type in all cases: cell-based
[1] = system: HIV-1 (IIIB); experiment: Antiviral assay in MT-4 cells; details: Human immunodeficiency virus 1, MT4, 120 h; replication of HIV-1 (IIIB) in MT-4 cells, 5 days incubation, Cell Titer Glo
Protocol: Example 24: HIV MT-4 Antiviral and Cytotoxicity Assay
Antiviral Assay in MT-4 Cells
Compounds were tested in a high-throughput 384-well assay format for their ability to inhibit the replication of HIV-1 (IIIB) in MT-4 cells. Compounds were serially diluted (1:3) in DMSO on 384-well polypropylene plates and further diluted 200-fold into complete RPMI media (10% FBS, 1% P/S) using the Biotek Micro Flow and Labcyte ECHO acoustic dispenser. Each plate contained up to 8 test compounds, with negative (No Drug Control) and 5 μM AZT positive controls. MT-4 cells were pre-infected with 10 μL of either RPMI (mock-infected) or a fresh 1:250 dilution of HIV-1 IIIB concentrated virus stock. Infected and uninfected MT-4 cells were further diluted in complete RPMI media and added to each plate using a Micro Flow dispenser. After 5 days incubation in a humidified and temperature controlled incubator (37° C.), Cell Titer Glo (Promega) was added to the assay plates and chemiluminescence read using an Envision plate-reader. EC50 values were defined as the compound concentration that causes a 50% decrease in luminescence signal, and were calculated using a sigmoidal dose-response model to generate curve fits.

[2] = system: pLai RLuc reporter virus; experiment: HIV MT-4 serum shift antiviral reporter assay; details: Human immunodeficiency virus 1, MT4, 72 h
Protocol: Example 25: HIV MT-4 Serum Shift Antiviral Reporter Assay
To quantify the amount of protein binding to human serum, compounds were serially diluted (1:3) in DMSO and acoustically transferred onto 384-well assay plates via a Labcyte ECHO robot. Each plate contained up to 8 test compounds, including negative and positive controls, (DMSO, 5 μM AZT respectively). Assay plates were prepared in duplicate, and tested in either CCM (cell culture media) or HS/CCM (human serum/cell culture media). MT-4 cells were first pre-infected with pLai RLuc reporter virus for 2 h at 37° C., then further diluted in either CCM (RPMI media, 10% FBS, 1% P/S) or HS/CCM (RPMI media, 10% FBS, 50% HS, 1% P/S), and subsequently added to each plate using a Biotek Micro Flow dispenser. After a 72-h incubation in a humidified and temperature controlled incubator (37° C.), Renilla Glo (Promega) was added to all assay plates and chemiluminescence read using an Envision plate-reader. EC50 values were defined as the compound concentration that causes a 50% decrease in luminescence signal, and were calculated using a sigmoidal dose-response model to generate curve fits. To determine the amount of protein binding, EC50 fold shifts (or EC50 shifts) were calculated by dividing EC50 (HS/CCM)/EC50 (CCM).

[3] = Cytotoxicity assay in MT-4 cells; details: human; uninfected MT-4 cells, 5 days incubation, Cell Titer Glo
Protocol: Cytotoxicity Assay in MT-4 Cells Assays were performed as above except uninfected MT-4 cells were added to each well containing test compound. In addition, 10 μM puromycin was added to the last column of each assay plate to assess a base level of cytotoxicity.

SMILES | EC50 [1] [nM] | EC50 ([2]; read-out: Antiviral Serum Shift RLuc 50% HS) [nM] | EC50 ([2]; read-out: Antiviral Serum Shift RLuc CCM) [nM] | CC50 at 5 days [3] [nM]
O=C(NCc1c(F)cc(F)cc1F)c1c2n3c(c(O)c1=O)C(=O)N1CCCC[C@]3(C1)[C@H](O)[C@H]2O (single isomer, unassigned) [Compound 11-2] |  | 48.4 | 1.52 | 
CO[C@@H]1[C@@H](OC)c2c(C(=O)NCc3c(F)cc(F)cc3F)c(=O)c(O)c3n2[C@@]12CCCCN(C2)C3=O (single isomer, unassigned) [Compound 13-1] | 1.7 |  |  | 27800
CO[C@@H]1c2c(C(=O)NCc3c(F)cc(F)cc3F)c(=O)c(O)c3n2[C@]2(CCCCN(C2)C3=O)[C@H]1OC (single isomer, unassigned) [Compound 13-2] | 1.1 |  |  | 24700
CO[C@@H]1c2c(C(=O)NCc3c(F)cc(F)cc3F)c(=O)c(O)c3n2[C@@]2(CCCCN(C2)C3=O)[C@H]1OC (single isomer, unassigned) [Compound 13-3] | 9.5 |  |  | 10100
CO[C@@H]1[C@@H](OC)c2c(C(=O)NCc3c(F)cc(F)cc3F)c(=O)c(O)c3n2[C@]12CCCCN(C2)C3=O (single isomer, unassigned) [Compound 13-4] | 10.7 |  |  | 30700
CO[C@H]1CC[C@H](C)N2C[C@]13CCc1c(C(=O)NCc4ccc(F)cc4F)c(=O)c(O)c(n13)C2=O [Compound 19-1, (1R,11S,14S)—N-[(2.4 difluorophenyl)methyl]-7-hydroxy-14-methoxy-11-methyl-6,9-dioxo-10,15-diazatetracyclo[6.6.1.11,10.04,15]hexadeca-4.7 diene-5-carboxamide] | 2.1 |  |  | 4600
CO[C@H]1C=C[C@H](C)N2C[C@]13CCc1c(C(=O)NCc4ccc(F)cc4F)c(=O)c(O)c(n13)C2=O [Compound 19-2, (1R,11S,14S)—N-[(2.4 difluorophenyl)methyl]-7-hydroxy-14-methoxy-11-methyl-6,9-dioxo-10,15-diazatetracyclo[6.6.1.11,10.04,15]hexadeca-4,7,12-triene-5-carboxamide] | 0.86 |  |  | 1870
CO[C@H]1C=C[C@H](C)N2C[C@]13CC(O)c1c(C(=O)NCc4ccc(F)cc4F)c(=O)c(O)c(n13)C2=O (stereo partly drawn) [Compound 19-3, (1R,11S,14S)—N-[(2.4 difluorophenyl)methyl]-3.7 dihydroxy-14-methoxy-11-methyl-6,9-dioxo-10,15-diazatetracyclo[6.6.1.11,10.04,15]hexadeca-4,7,12-triene-5-carboxamide] | 1.2 |  |  | 6950
CO[C@H]1C=C[C@H](C)N2C[C@]13CCc1c(C(=O)NCc4c(F)cc(F)cc4F)c(=O)c(O)c(n13)C2=O [Compound 22, (3S,6S,6aR)-11-hydroxy-6-methoxy-3-methyl-1,10-dioxo-N-(2,4,6-trifluorobenzyl)-1,3,6,7,8,10-hexahydro-2,6a-methano[1,4]diazonino[9,1,2-cd]indolizine-9-carboxamide] | 1.8 |  |  | 1940

Continued, in another order:

EC50 [1] [nM] | SMILES | EC50 ([2]; read-out: Antiviral Serum Shift RLuc 50% HS) [nM] | EC50 ([2]; read-out: Antiviral Serum Shift RLuc CCM) [nM] | CC50 at 5 days [3] [nM]
2.29 | O=C(NCc1c(F)cc(F)cc1F)c1c2n3c(c(O)c1=O)C(=O)N1CCCC[C@@]3(C[C@H]2F)C1 (single isomer, unassigned) [Compound 8-2] |  |  | 
4.47 | CO[C@H]1C[C@@]23CCCCN(C2)C(=O)c2c(O)c(=O)c(C(=O)NCc4c(F)cc(F)cc4F)c1n23 (single isomer, unassigned) [Compound 12-3] |  |  | 14800
7.33 | CO[C@@H]1C[C@]23CCCCN(C2)C(=O)c2c(O)c(=O)c(C(=O)NCc4c(F)cc(F)cc4F)c1n23 (single isomer, unassigned) [Compound 12-4] |  |  | 
2.8 | O=C(NCc1c(F)cc(F)cc1F)c1c2n3c(c(O)c1=O)C(=O)N1CCCC[C@]3(CC2CO)C1 (single isomer, unassigned) [Compound 16] |  |  | 7450
2.6 | O=C(NCc1cccc(Cl)c1F)c1c2n3c(c(O)c1=O)C(=O)N1CCCC[C@]3(CC2)C1 [Compound 6, (6aS)—N-(3-chloro-2-fluorobenzyl)-11-hydroxy-1,10-dioxo-1,3,4,5,6,7,8,10-octahydro-2,6a-methano[1,4]diazonino[9,1,2-cd]indolizine-9-carboxamide] |  |  | 3680
